Data from patent publication US12508302B2, “Pharmaceutical composition providing mucolytic effect” (FRIMLINE PRIVATE LIMITED, priority 2022, dated 2025).

Test system: tracheobronchial secretion in rats
Test: Mucolytic activity in rats: tracheobronchial secretion of fluorescein sodium (FINa)
Format: in vivo, rat (Swiss Albino Rats)
Conditions: for Fluorescein Sodium (FINa) Secretion: dosed 30 minutes before i.v. FINa 300 mg/kg, tracheobronchial lavage one hour after administration, doses as Table 1, mean±SEM; for Percentage (%) Enhancement of FINa secretion compared to Normal: versus normal group (G1)
Protocol: The effect of the compositions of the present invention was studied in animals. For this study, screening effect of synergistic combination of compositions/formulations comprising N-Acetyl-L-Cysteine, Lactoferrin and additional active ingredients for mucolytic activity in rat was performed. The following trials were carried out:
Eighty-Four (84) rats including male and female (Swiss Albino Rats) divided into 14 groups (6 per group) were maintained in animal house in a light/dark atmosphere based on a 12 hour cycle having temperature and relative humidity in the range of 19 to 25±2° C. and 30-70%, respectively. To maintain the appropriate conditions, temperature and relative humidity were recorded three times daily. All animals were acclimatized for a minimum period of five days. Animals were maintained in the test setup for minimum 30 minutes once during the acclimatization period to reduce the stress. Animals were weighed on the day of receipt and observed daily for abnormalities if any. Detailed records of acclimatization were also maintained. Rats were housed 3 per cage in clean, sterilized Polypropylene cages. During complete experiments, animals were supplied with the standard certified rat pellet feed and drinking water treated by reverse osmosis ad libitum.
In order to evaluate the mucolytic activity in rats, eighty-four (84) rats were screened and divided into Fourteen (14) groups. For a comparative analysis, groups were divided and treated as below:
Tracheobronchial secretion in rats, expressed by the amount of fluorescein sodium (FINa) dye excreted into the respiratory tract, was measured by modification of methods published earlier.
Lactoferrin, Carotenoid, N-Acetyl-L-Cysteine or their combinations (G4-G14) were suspended in 1% Acacia. Acetylcholine (G2) and Bromhexine (G3) were dissolved in distilled water. The said active ingredients were administered orally (1 ml/100 g body weight) 30 minutes before intravenous injection of FINa (300 mg/kg, 0.1 ml/100 g body weight) in fasted rats.
One hour after administration, all rats were sacrificed with CO2 exposure; an incision was made, and the trachea was immediately exposed. An infant feeding tube was gently inserted into the trachea (about 30 mm deep). Five milliliters of 5% NaHCO3 solution (˜37° C.) was injected into the respiratory tract and immediately aspirated while gently massaging the thoracic area.
The tracheobronchial lavage fluid (4.9±0.1 ml) was centrifuged (3500 rpm for 10 minutes) and the supernatant was transferred to STP B & L tubes. The fluorescence intensity of the supernatant was measured with a Genesys 20 spectrophotometer set at a wavelength of 510 nm (emission).

SMILES	Fluorescein Sodium (FINa) Secretion [μg/100 g/h]	Percentage (%) Enhancement of FINa secretion compared to Normal (doses as Table 1)	Percentage (%) Enhancement of FINa secretion compared to Normal (doses as Table 1, listed as diseased group) [%]	Percentage (%) Enhancement of FINa secretion compared to Normal (doses as Table 1, listed as N-Acetyl-L-Cysteine) [%]	Percentage (%) Enhancement of FINa secretion compared to Normal (doses as Table 1, listed as positive control) [%]
CC(=O)OCC[N+](C)(C)C [Diseased Control, Acetylcholine]	0.37 ± 0.12	−74.13 ± 6.4 ^ %	−74.13		
CC(=O)N[C@@H](CS)C(=O)O [NAC, N-Acetyl-L-Cysteine]	1.99 ± 0.08	39.16 ± 5.1%		39.16	
CN(Cc1cc(Br)cc(Br)c1N)C1CCCCC1 [Positive Control, Bromhexine]	2.64 ± 0.18	84.62 ± 6.1%			84.62
